Measurements reported in article PMC4763008, “Selective Inhibition of Bakuchicin Isolated from Psoralea corylifolia on CYP1A in Human Liver Microsomes” (Evidence-based Complementary and Alternative Medicine : eCAM, 2016).
“Also recorded” adds a separate entry of the source. Where two headings read alike, the source gives them in different places.

How the values were obtained:
Format in all cases: in vitro ADME
[1] = biological target: T1, CYP2B6 (Homo sapiens, UniProt P20813); assay: CYP inhibition, cocktail of probe substrates in pooled human liver microsomes: bupropion hydroxylation; conditions: pooled HLMs, substrate 50 μM
T1 construct: tissue Corning Gentest BD UltraPool HLM 150; host or cells: pooled human liver microsomes
T1 sequence (P20813 1-491): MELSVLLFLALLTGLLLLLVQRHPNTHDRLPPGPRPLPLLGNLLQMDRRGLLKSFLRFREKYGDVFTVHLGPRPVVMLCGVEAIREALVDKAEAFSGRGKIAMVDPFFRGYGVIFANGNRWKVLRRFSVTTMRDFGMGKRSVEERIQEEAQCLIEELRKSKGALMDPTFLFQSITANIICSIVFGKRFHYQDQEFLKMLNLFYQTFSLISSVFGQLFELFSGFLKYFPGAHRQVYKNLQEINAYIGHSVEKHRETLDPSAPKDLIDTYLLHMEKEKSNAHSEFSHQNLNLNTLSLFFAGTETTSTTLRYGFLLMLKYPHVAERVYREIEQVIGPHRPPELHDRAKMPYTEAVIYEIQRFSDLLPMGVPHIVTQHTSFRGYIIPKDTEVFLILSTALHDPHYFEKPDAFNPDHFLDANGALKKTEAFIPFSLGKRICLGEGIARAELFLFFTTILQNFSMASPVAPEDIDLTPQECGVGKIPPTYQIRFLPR
Method: (§1) All incubations were performed in duplicate, and data are presented as means. Briefly, each reaction was performed with 0.5 mg/mL pooled human liver microsomes in a final incubation volume of 0.1 mL. The incubation medium consisted of 0.1 M potassium phosphate buffer (pH 7.4) containing cocktail of probe substrates and a NADPH-generating system (NGS) of 0.1 M glucose 6-phosphate, 10 mg/mL β-NADPH, and 1.0 U/mL glucose-6-phosphate dehydrogenase. To investigate the IC50 of bakuchicin during CYP1A inhibition, bakuchicin (at final concentrations of 0–25 μM) was incubated without preincubation. In addition, the mixture with bakuchicin was preincubated for 15 min without the probe substrate cocktail in the presence or absence of 1 mM β-NADPH. After the reaction was initiated by adding the NGS for 60 min, incubated samples were terminated by adding 100 μL acetonitrile containing 0.1% formic acid and 2.5 μL of internal standard solution (5 μM reserpine) in methanol. After mixing and centrifuging at 13,000 ×g for 12 min, a 5 μL aliquot was injected onto a C18 column for LC-MS/MS analysis.
(§2) All measurements were performed using LC-MS/MS in multiple reaction monitoring mode. LC-MS/MS was performed using an Accela™ LC system coupled to a TSQ Vantage triple quadrupole mass spectrometer (Thermo Fisher Scientific Inc., USA) equipped with a HESI-II Spray source. Electrospray ionization was performed in positive mode at a spray voltage of 3,500 V (except for the detection of 6-hydroxy chlorzoxazone). Nitrogen was used as a sheath and auxiliary gas at optimum values of 45 and 20 (arbitrary units), respectively. Vaporizer and capillary temperatures were 150 and 300°C, respectively. For LC analysis an Inertsil® ODS-2 (3 μm, 2.1 × 150 mm) column (GL Sciences Inc., Torrance, CA) was used. The mobile phase consisted of acetonitrile (mobile phase A) and water (mobile phase B), both of which contained 0.1% formic acid, at a flow rate of 0.22 mL/min at 30°C.
(§3) All incubations were performed in duplicate, and data are presented as means. […]

[2] = biological target: T2, CYP2D6 (Homo sapiens, UniProt P10635); assay: CYP inhibition, cocktail of probe substrates in pooled human liver microsomes: dextromethorphan O-demethylation; conditions: pooled HLMs, dextromethorphan O-deethylation, substrate 5 μM
T2 construct: each reaction was performed with 0.5 mg/mL pooled human liver microsomes; tissue Corning Gentest BD UltraPool HLM 150; host or cells: pooled human liver microsomes
T2 sequence (P10635 whole entry): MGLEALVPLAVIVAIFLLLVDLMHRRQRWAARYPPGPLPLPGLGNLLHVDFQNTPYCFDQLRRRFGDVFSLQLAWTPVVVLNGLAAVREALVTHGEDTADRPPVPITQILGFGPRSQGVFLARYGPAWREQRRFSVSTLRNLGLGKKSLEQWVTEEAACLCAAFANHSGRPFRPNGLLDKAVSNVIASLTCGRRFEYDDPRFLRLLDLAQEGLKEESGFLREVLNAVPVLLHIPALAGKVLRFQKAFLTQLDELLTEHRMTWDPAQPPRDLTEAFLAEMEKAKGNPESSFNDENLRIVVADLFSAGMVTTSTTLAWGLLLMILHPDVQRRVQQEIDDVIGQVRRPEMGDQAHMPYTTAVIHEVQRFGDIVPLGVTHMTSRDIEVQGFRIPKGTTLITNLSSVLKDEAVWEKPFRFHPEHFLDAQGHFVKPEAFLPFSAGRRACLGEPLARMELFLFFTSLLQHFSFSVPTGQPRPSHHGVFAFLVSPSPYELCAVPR

[3] = biological target: T3, CYP2C19 (Homo sapiens, UniProt P33261); assay: CYP inhibition, cocktail of probe substrates in pooled human liver microsomes: omeprazole 5-hydroxylation; conditions: pooled HLMs, substrate 20 μM
T3 construct: tissue Corning Gentest BD UltraPool HLM 150; host or cells: pooled human liver microsomes
T3 sequence (P33261 whole entry): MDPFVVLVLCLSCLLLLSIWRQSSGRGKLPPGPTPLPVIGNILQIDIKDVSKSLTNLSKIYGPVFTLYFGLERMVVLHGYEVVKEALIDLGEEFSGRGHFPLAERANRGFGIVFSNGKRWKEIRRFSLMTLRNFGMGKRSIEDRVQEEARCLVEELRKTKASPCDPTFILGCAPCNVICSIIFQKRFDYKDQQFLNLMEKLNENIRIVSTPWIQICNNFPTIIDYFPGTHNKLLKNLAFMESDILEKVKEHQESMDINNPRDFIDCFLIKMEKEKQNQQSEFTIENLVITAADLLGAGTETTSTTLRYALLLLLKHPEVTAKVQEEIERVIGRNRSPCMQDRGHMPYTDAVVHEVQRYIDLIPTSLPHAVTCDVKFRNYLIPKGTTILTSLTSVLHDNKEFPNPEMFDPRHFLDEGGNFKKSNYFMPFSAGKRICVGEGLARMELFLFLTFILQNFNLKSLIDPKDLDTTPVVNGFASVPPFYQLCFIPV
Method: as §1, §2, §3

[4] = biological target: T4, CYP1A (Homo sapiens, UniProt P05177); assay: Inhibition mode on CYP1A-catalyzed phenacetin O-deethylation in HLMs (Lineweaver-Burk and secondary plot); conditions: for inhibition mechanism on CYP1A in HLMs: pooled HLMs, phenacetin O-deethylation, Lineweaver-Burk plot / IC50 shift
T4 sequence (P05177 2-516): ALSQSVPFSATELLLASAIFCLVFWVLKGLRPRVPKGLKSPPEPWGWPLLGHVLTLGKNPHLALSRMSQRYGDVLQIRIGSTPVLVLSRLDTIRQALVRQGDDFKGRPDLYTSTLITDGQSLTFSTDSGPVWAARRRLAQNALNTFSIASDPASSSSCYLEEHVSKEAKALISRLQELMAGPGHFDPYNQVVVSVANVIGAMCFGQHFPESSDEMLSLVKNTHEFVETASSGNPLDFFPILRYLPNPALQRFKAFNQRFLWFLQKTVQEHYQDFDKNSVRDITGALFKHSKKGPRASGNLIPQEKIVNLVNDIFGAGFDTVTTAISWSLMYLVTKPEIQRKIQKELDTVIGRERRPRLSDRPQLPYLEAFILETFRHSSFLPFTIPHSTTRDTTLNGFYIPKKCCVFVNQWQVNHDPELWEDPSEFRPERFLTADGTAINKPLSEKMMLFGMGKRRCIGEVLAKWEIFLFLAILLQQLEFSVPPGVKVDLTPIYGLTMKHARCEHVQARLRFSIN
Method: To characterize the inhibition mode on CYP1A by bakuchicin, 0.5 mg/mL of HLMs was incubated with bakuchicin at 0, 0.2, 0.4, and 0.8 μM in 0.1 M potassium phosphate buffer (pH 7.4) for 60 min at 37°C. Those were terminated by adding 100 μL acetonitrile containing 0.1% formic acid and 2.5 μL of internal standard solution (5 μM reserpine) in methanol. After mixing and centrifuging at 13,000 ×g for 12 min, a 5 μL aliquot was injected onto a C18 column for LC-MS/MS analysis. Phenacetin was used as a probe substrate at 20, 40, or 80 μM. The inhibition pattern was investigated by Michaelis-Menten and its secondary plotting.
as §2
All incubations were performed in duplicate, and data are presented as means. IC50 values (the concentration of inhibitor causing a 50% inhibition in enzyme activity) were obtained using percent activity versus log[I] concentration plots. Kinetic parameters were estimated by curve fitting using SigmaPlot (version 12.0, Systat Software, Inc.).

[5] = 15 min preincubation with NADPH, read-out: IC50 With preincubation with NADPH
[6] = 15 min preincubation without NADPH, read-out: IC50 With preincubation Without NADPH
[7] = without preincubation, read-out: IC50 Without preincubation

**Q.** Which IC50 [1, 5] does the source give for O=c1ccc2c(ccc3ccoc32)o1 [Bakuchicin] here?
**A.** 11.5 µM

**Q.** And the IC50 [1, 6]?
**A.** 16.4 µM

**Q.** What about the IC50 [1, 7] of the same compound?
**A.** 14.2 µM

**Q.** And the IC50 [2, 5]?
**A.** 15.1 µM

**Q.** And the IC50 [2, 6]?
**A.** 21.7 µM

**Q.** What about the IC50 [2, 7] of the same compound?
**A.** 18.2 µM

**Q.** And the IC50 [3, 5]?
**A.** > 100 µM

**Q.** And the IC50 [3, 6]?
**A.** > 100 µM

**Q.** And the IC50 [3, 7]?
**A.** > 100 µM

**Q.** What about the Ki at 60 min ([4]; human, pooled human liver microsomes, pH 7.4, probe phenacetin (O-deethylation), phenacetin 20, 40, 80 μM, 60 min incubation) of the same compound?
**A.** 0.09 µM

**Q.** What about the “inhibition mechanism on CYP1A in HLMs” value [4] of the same compound?
**A.** reversible competitive inhibitor

**Q.** What about the “inhibition mechanism on CYP1A in HLMs” value ([4]; listed as bakuchicin) of the same compound?
**A.** competitive inhibition; also recorded: reversible inhibitor
